Data as given in patent US11555012B2 (Nimbus Artemis, Inc., priority 2018, dated 2023).
Like-named read-outs stand apart in the source and are kept apart here.

Experiments:
ACL [1] = biological target: T1, ACL (Homo sapiens (Human), UniProt P53396); test: ADP-Glo Assay
Target sequence in this assay (P53396 other isoform, or with tags, fused parts or gaps isoform P53396-2): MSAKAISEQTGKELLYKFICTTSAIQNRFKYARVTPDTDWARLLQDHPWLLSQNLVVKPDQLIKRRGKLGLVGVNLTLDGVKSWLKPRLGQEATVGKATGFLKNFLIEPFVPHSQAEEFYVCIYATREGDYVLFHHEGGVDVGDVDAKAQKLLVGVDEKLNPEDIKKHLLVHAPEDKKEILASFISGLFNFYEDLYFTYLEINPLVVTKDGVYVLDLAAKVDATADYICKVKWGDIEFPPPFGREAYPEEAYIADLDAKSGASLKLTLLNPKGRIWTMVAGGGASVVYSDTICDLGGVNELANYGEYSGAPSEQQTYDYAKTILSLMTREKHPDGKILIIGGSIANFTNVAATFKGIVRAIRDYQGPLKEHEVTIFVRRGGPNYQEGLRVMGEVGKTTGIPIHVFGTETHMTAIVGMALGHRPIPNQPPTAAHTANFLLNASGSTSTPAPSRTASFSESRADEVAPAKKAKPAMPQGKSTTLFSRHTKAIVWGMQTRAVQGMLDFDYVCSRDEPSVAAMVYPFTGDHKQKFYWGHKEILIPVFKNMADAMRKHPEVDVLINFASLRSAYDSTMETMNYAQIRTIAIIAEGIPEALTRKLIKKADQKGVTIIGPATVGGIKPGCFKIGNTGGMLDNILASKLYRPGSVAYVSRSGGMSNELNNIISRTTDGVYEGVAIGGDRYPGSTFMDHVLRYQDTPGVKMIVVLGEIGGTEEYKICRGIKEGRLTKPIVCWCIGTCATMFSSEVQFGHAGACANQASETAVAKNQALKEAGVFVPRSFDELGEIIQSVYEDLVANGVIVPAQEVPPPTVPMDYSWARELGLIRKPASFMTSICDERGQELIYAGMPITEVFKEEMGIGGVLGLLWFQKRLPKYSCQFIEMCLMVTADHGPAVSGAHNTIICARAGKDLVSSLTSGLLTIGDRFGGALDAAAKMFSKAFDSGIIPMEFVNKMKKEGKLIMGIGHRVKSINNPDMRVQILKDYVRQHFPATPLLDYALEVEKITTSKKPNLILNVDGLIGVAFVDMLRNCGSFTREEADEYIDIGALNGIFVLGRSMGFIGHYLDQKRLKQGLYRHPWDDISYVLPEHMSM

HepG2 cells [2] = conditions: Homo sapiens, HepG2, read-out: ACLY HepG2 14C-Pyruvate Assay serum free IC50 FA (IC50) [μM]
ACL [3] = biological target: T1, ACL; test: ACLY-MDH Coupled Assay
Target sequence in this assay (P53396 whole entry, species assumed): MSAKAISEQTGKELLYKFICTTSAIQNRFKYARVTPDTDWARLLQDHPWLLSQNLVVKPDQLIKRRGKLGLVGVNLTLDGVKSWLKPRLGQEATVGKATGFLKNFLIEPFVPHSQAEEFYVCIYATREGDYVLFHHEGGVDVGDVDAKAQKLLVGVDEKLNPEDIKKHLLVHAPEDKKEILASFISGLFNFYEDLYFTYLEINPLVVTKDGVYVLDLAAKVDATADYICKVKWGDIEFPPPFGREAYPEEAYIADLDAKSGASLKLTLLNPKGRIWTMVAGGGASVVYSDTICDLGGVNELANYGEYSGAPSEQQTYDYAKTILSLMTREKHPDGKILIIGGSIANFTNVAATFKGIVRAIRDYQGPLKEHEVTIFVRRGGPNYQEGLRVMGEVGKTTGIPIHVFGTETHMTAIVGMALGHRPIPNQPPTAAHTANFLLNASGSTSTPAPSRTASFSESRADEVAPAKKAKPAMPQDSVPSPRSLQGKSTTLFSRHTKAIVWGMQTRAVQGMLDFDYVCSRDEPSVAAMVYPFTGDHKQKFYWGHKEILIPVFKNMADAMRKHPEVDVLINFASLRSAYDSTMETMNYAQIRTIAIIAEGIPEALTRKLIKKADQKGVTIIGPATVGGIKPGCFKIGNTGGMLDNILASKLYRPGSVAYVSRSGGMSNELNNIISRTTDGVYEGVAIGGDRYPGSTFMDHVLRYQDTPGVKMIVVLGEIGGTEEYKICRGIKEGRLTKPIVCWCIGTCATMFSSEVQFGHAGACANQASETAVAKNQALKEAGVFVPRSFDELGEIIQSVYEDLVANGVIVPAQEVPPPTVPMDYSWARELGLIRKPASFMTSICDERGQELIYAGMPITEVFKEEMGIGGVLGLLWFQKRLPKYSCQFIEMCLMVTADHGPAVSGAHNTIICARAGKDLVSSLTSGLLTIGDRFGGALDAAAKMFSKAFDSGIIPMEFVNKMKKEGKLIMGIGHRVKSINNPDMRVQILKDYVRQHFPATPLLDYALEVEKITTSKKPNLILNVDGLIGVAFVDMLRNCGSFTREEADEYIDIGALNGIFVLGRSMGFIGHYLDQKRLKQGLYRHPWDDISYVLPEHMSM
Experimental: Compounds of the present invention were evaluated in an ACLY Coupled Assay.
The assay protocol for the Coupled Assay (below) was followed:
b) Add 1 μL cpds to 96 assay plate, Test cpd conc: 100/30/10 μM top dose, 3 folds dilution, 10+0+control (control: buffer without ACL+DMSO) points, 1000 rpm for 1 min, incubation at 25° C. for 60 min

HepG2 cells [4] = conditions: Homo sapiens, HepG2, read-out: ACLY HepG2 14C-Pyruvate Assay serum free IC50 Cholesterol (IC50) [μM]
Experimental: ACLY HepG2 ^14C-Pyruvate Incorporation Serum-Free Assay (IC50 Cholesterol and Fatty Acid Synthesis)
Compounds of the present invention were evaluated in a HepG2 ^14C-pyruvate incorporation assay. The protocol below was followed:
After 48 hours, change medium with fresh growth medium.
After 18 hours, replaced medium using 0.5 mL fresh medium (5.5 mM Glucose, without FBS, 1% PS, without Pyruvate) containing Compounds or 0.5% DMSO, incubated at 37° C., 5% CO2 for 1 hour.
Add 3 μci of [14C]-pyruvate per well to the cell samples were incubated at 37° C., 5% CO2 for 5 hours.
Medium was removed and placed into a 15 mL centrifuge tube. Add 0.5 mL of 0.1M NaOH to each well and then transfer the cell lysates into the corresponding 15 mL centrifuge tubes. 1.0 mL of EtOH and 0.17 mL 50% KOH were added to 15 mL tubes containing medium and cell suspensions, then shaking tube gently. […] Saponification 15 mL tubes containing medium and cell suspensions were incubated at 90° C. for 1 hour, then cooled to room temperature. […] Cholesterol Extraction 5 mL of petroleum ether was added per tube to extract Cholesterol, shaken vigorously, centrifuged at 1000 rpm for 5 min, and ˜5 mL of the petroleum ether layer was transferred to a new glass tube (18*180 mm). […] Acidification The samples in 15 mL tube were acidified directly with 1 mL concentrated HCl, make sure pH was below 1. […] Fatty Acids Extraction 5 mL of petroleum ether was added per tube, shaken vigorously, centrifuged at 1000 rpm for 5 min, 5 mL of the petroleum ether layer was transferred to the corresponding glass tube. […] Count The petroleum ether extracts were pooled and evaporated to dryness overnight. The residue from the petroleum ether fractions were resuspended in 500 μL of chloroform-hexane (1:1) containing 420 μg of linoleic acid as a carrier. Add 200 μL of resuspending (chloroform-hexane (1:1) containing 168 μg of linoleic acid) to 2 mL Ultima Gold™, after 30 min, count on a scintillation counter.

[5] = read-out: ACL-ADP-Glo (IC50), 3 nM ACL, 15 μM ATP, 3 μM CoA, 300 μM Citrate
[6] = read-out: ACL-MDH Coupled Assay (IC50), 8 nM ACL, 60 μM CoA Na2, 85 μM Citrate, 250 μM ATP, 250 μM NADH

IC50 (ACL [1]) | IC50 (HepG2 cells [2]) | IC50 (ACL [3]) | IC50 (HepG2 cells [4]) | IC50 (ACL [1]; [5]) | IC50 (ACL [3]; [6]) | SMILES
50 to 500 nM | > 10 µM | 50 to 500 nM | 1 to 5 µM | – | – | COc1ccc(-c2ccccc2)cc1NS(=O)(=O)c1cc(-c2ncco2)cc(Cl)c1O [I-59, 3-chloro-2-hydroxy-N-(2-methoxy-5-phenylphenyl)-5-(1,3-oxazol-2-yl)benzene-1-sulfonamide]
– | > 10 µM | – | 1 to 5 µM | < 50 nM | < 50 nM | O=S(=O)(Nc1cc(-c2ccccc2)c(F)cc1F)c1cc(-c2ncco2)cc(Cl)c1O [I-116, 3-chloro-N-[4,6-difluoro-[1,1-biphenyl]-3-yl]-2-hydroxy-5-(1,3-oxazol-2-yl)benzene-1-sulfonamide]
500 to 20000 nM | 1 to 10 µM | 500 to 30000 nM | 1 to 5 µM | – | – | O=C(Nc1cc(-c2ccccc2)ccc1C(=O)O)c1cc(Cl)cc(Cl)c1 [I-260, 3-(3,5-dichlorobenzamido)-[1,1′-biphenyl]-4-carboxylic Acid]
– | > 10 µM | – | 1 to 5 µM | < 50 nM | < 50 nM | O=S(=O)(Nc1cc(-c2ccccc2)c(F)cc1F)c1cc(Cl)cc(Cl)c1O [I-41, 3,5-dichloro-N-(2,4-difluoro-5-phenylphenyl)-2-hydroxybenzene-1-sulfonamide]
50 to 500 nM | – | 500 to 30000 nM | – | – | – | O=C(c1cc(Cl)c(O)c(S(=O)(=O)Nc2cc(C3CC3)c(F)cc2F)c1)N1CC(F)C1 [I-194, 3-chloro-N-(5-cyclopropyl-2,4-difluorophenyl)-5-(3-fluoroazetidine-1-carbonyl)-2-hydroxybenzene-1-sulfonamide]
50 to 500 nM | – | 500 to 30000 nM | – | – | – | O=C(c1cc(Cl)c(O)c(S(=O)(=O)Nc2cc(-c3ccccc3)c(F)cc2F)c1)N1Cc2ccccc2C1 [I-100, 3-chloro-N-(4,6-difluoro-[1,1′-biphenyl]-3-yl)-2-hydroxy-5-(isoindoline-2-carbonyl)benzenesulfonamide]
500 to 20000 nM | – | 500 to 30000 nM | – | – | – | O=C(O)c1cc(F)c(-c2ccccc2)cc1NCc1cc(Cl)cc(Cl)c1 [I-317, 5-((3,5-dichlorobenzyl)amino)-2-fluoro-[1,1′-biphenyl]-4-carboxylic Acid]
50 to 500 nM | – | 500 to 30000 nM | – | – | – | O=C(O)c1cc(Cl)c(O)c(S(=O)(=O)Nc2cc(-c3cc4ccccc4s3)c(F)cc2OC(F)(F)F)c1 [I-508, 3-(N-(5-(benzo[b]thiophen-2-yl)-4-fluoro-2-(trifluoromethoxy)phenyl)sulfamoyl)-5-chloro-4-hydroxybenzoic Acid]
500 to 20000 nM | – | 500 to 30000 nM | – | – | – | O=C(O)c1ccc(F)c(NS(=O)(=O)c2cc(Cl)cc(Cl)c2O)c1 [I-12, 3-((3,5-dichloro-2-hydroxyphenyl)sulfonamido)-4-fluorobenzoic Acid]
50 to 500 nM | – | 50 to 500 nM | – | – | – | CS(=O)(=O)c1cc(Cl)c(O)c(S(=O)(=O)Nc2cc(-c3ccccc3)c(F)cc2F)c1 [I-124, 3-chloro-N-[4,6-difluoro-[1,1-biphenyl]-3-yl]-2-hydroxy-5-methanesulfonylbenzene-1-sulfonamide]

Continued, compound first:

SMILES | IC50 (ACL [1]) | IC50 (HepG2 cells [2]) | IC50 (ACL [3]) | IC50 (HepG2 cells [4]) | IC50 (ACL [1]; [5]) | IC50 (ACL [3]; [6])
COC(=O)c1cc(Cl)c(O)c(S(=O)(=O)Nc2ccc(F)c(-c3ccccc3)c2F)c1 [I-110, Methyl 3-chloro-5-[(2,4-difluoro-3-phenylphenyl)sulfamoyl]-4-hydroxybenzoate] | 500 to 20000 nM | > 10 µM | 500 to 30000 nM | 1 to 5 µM | – | –
O=C(c1cc(Cl)c(O)c(S(=O)(=O)Nc2cc(-c3ccccc3)c(F)cc2F)c1)N1CCCC1 [I-82, 3-chloro-N-(4,6-difluoro-[1,1′-biphenyl]-3-yl)-2-hydroxy-5-(pyrrolidine-1-carbonyl)benzenesulfonamide] | – | > 10 µM | – | 1 to 5 µM | < 50 nM | < 50 nM
O=S(=O)(Nc1ccccc1OCc1ccccc1)c1cc(Cl)cc(Cl)c1O [I-15, N-(2-(benzyloxy)phenyl)-3,5-dichloro-2-hydroxybenzenesulfonamide] | 500 to 20000 nM | 1 to 10 µM | 500 to 30000 nM | 1 to 5 µM | – | –
COc1ccc(-c2cccnc2)cc1NS(=O)(=O)c1cc(Cl)cc(Cl)c1O [I-7, 3,5-dichloro-2-hydroxy-N-(2-methoxy-5-(pyridin-3-yl)phenyl)benzenesulfonamide] | 500 to 20000 nM | – | 500 to 30000 nM | – | – | –
O=C(O)COc1ccc(-c2ccccc2)cc1NS(=O)(=O)c1cc(Cl)cc(Cl)c1O [I-212, 2-[[3-(3,5-dichloro-2-hydroxybenzenesulfonamido)-[1,1-biphenyl]-4-yl]oxy]acetic Acid] | 50 to 500 nM | – | 500 to 30000 nM | – | – | –
CC(=O)NCCOC(=O)c1cc(Cl)c(O)c(S(=O)(=O)Nc2cc(-c3ccccc3)c(F)cc2F)c1 [I-112, 2-acetamidoethyl 3-chloro-5-(N-(4,6-difluoro-[1,1′-biphenyl]-3-yl)sulfamoyl)-4-hydroxybenzoate] | – | – | 50 to 500 nM | – | < 50 nM | –
O=S(=O)(c1cc(Cl)cc(Cl)c1O)N(Cc1ccccc1)Cc1cccc(-c2ccccc2)c1 [I-67, N-([1,1′-biphenyl]-3-ylmethyl)-N-benzyl-3,5-dichloro-2-hydroxybenzenesulfonamide] | 500 to 20000 nM | – | 500 to 30000 nM | – | – | –
O=C(O)c1cc(-c2ccccc2)sc1NS(=O)(=O)c1cc(Cl)cc(Cl)c1 [I-242, 2-((3,5-dichlorophenyl)sulfonamido)-5-phenylthiophene-3-carboxylic Acid] | 500 to 20000 nM | – | 500 to 30000 nM | – | – | –
CO[C@H]1CCN(C(=O)c2cc(Cl)c(O)c(S(=O)(=O)Nc3cc(-c4ccccc4)c(F)cc3F)c2)C1 [I-103, 3-chloro-N-(2,4-difluoro-5-phenylphenyl)-2-hydroxy-5-[[(3S)-3-methoxypyrrolidin-1-yl]carbonyl]benzene-1-sulfonamide] | – | – | – | – | < 50 nM | < 50 nM
N#Cc1cc(Cl)cc(S(=O)(=O)Nc2cc(-c3ccccc3)ccc2C(=O)O)c1 [I-226, 3-((3-chloro-5-cyanophenyl)sulfonamido)-[1,1′-biphenyl]-4-carboxylic acid] | 500 to 20000 nM | – | 500 to 30000 nM | – | – | –
O=C(c1cc(Cl)c(O)c(S(=O)(=O)Nc2cc(-c3ccccc3)cc(F)c2F)c1)N1CCCC1 [I-159, 3-chloro-N-[4,5-difluoro-[1,1-biphenyl]-3-yl]-2-hydroxy-5-(pyrrolidine-1-carbonyl)benzene-1-sulfonamide] | – | – | – | – | < 50 nM | < 50 nM
COC(=O)Cc1cc(Cl)c(O)c(S(=O)(=O)Nc2cc(-c3ccccc3)ccc2OC)c1 [I-94, Methyl 2-[3-chloro-4-hydroxy-5-[(2-methoxy-5-phenylphenyl)sulfamoyl]phenyl]acetate] | 500 to 20000 nM | – | 500 to 30000 nM | – | – | –
CN(C)C(=O)c1cc(Cl)c(O)c(S(=O)(=O)Nc2cc(-c3ccccc3)c(F)cc2F)c1 [I-83, 3-chloro-5-[(2,4-difluoro-5-phenylphenyl)sulfamoyl]-4-hydroxy-N,N-dimethylbenzamide] | – | > 10 µM | – | 1 to 5 µM | – | –
COc1ccc(-c2cccnc2)cc1NS(=O)(=O)c1cc(C(=O)N2CCC2)cc(Cl)c1O [I-144, 5-(azetidine-1-carbonyl)-3-chloro-2-hydroxy-N-[2-methoxy-5-(pyridin-3-yl)phenyl]benzene-1-sulfonamide] | 50 to 500 nM | – | 500 to 30000 nM | – | – | –
O=C(O)c1cc(Cl)c(O)c(S(=O)(=O)Nc2cc(-c3ccccc3)ccc2F)c1 [I-107, 3-chloro-5-[(2-fluoro-5-phenylphenyl)sulfamoyl]-4-hydroxybenzoic Acid] | 500 to 20000 nM | – | 500 to 30000 nM | – | – | –
CC#Cc1cc(Cl)ccc1NS(=O)(=O)c1cc(Br)cc(Cl)c1O [I-512] | 500 to 20000 nM | – | 500 to 30000 nM | – | – | –
NC1CN(C(=O)c2cc(Cl)c(O)c(S(=O)(=O)Nc3cc(-c4ccccc4)c(F)cc3F)c2)C1 [I-200, 5-(3-aminoazetidine-1-carbonyl)-3-chloro-N-[4,6-difluoro-[1,1-biphenyl]-3-yl]-2-hydroxybenzene-1-sulfonamide] | – | – | 50 to 500 nM | – | < 50 nM | –
O=C(c1cc(Cl)c(O)c(S(=O)(=O)Nc2cc(-c3cccnc3)c(F)cc2F)c1)N1CCC1 [I-197, 5-(azetidine-1-carbonyl)-3-chloro-N-[2,4-difluoro-5-(pyridin-3-yl)phenyl]-2-hydroxybenzene-1-sulfonamide] | 50 to 500 nM | – | 500 to 30000 nM | – | – | –
O=C(O)c1ccc(-c2ccccc2)cc1NS(=O)(=O)Cc1ccc(C(F)(F)F)cc1 [I-299, 3-(((4-(trifluoromethyl)phenyl)methyl)sulfonamido)-[1,1′-biphenyl]-4-carboxylic acid] | 500 to 20000 nM | – | 500 to 30000 nM | – | – | –
O=C(c1cc(Cl)c(O)c(S(=O)(=O)Cc2cc(-c3ccccc3)c(F)cc2F)c1)N1CCCC1 [I-211, (3-chloro-5-(((4,6-difluoro-[1,1′-biphenyl]-3-yl)methyl)sulfonyl)-4-hydroxyphenyl)(pyrrolidin-1-yl)methanone] | 500 to 20000 nM | – | 500 to 30000 nM | – | – | –
O=C(O)c1cc(F)c(-c2ccccc2)cc1NS(=O)(=O)c1cc(Cl)cc(Cl)c1O [I-289, 5-((3,5-dichloro-2-hydroxyphenyl)sulfonamido)-2-fluoro-[1,1′-biphenyl]-4-carboxylic Acid] | 500 to 20000 nM | – | 500 to 30000 nM | – | – | –
COc1ccc(-c2ccccc2)cc1NS(=O)(=O)c1cccc(-c2nn[nH]n2)c1 [I-19, N-(4-methoxy-[1,1′-biphenyl]-3-yl)-3-(2H-tetrazol-5-yl)benzenesulfonamide] | 500 to 20000 nM | – | 500 to 30000 nM | – | – | –
O=C(O)c1ccc(-c2ccccc2)cc1NS(=O)(=O)C1CCC1 [I-329] | 500 to 20000 nM | – | 500 to 30000 nM | – | – | –
